Consider three compounds from US20240043860A1, “NOVEL HYDROXYPHENYLPYRUVATE DIOXYGENASE POLYPEPTIDES AND METHODS OF USE THEREOF” (Syngenta Crop Protection AG, priority 2020, published 2024).

For assay [1], the system named is transgenic tobacco plants expressing mutant HPPD SEQ ID NO: 14. The experiment in a line: spray test, herbicidal damage scoring. Type of assay: in vivo. How it is done: Avena sativa HPPD or orthologues and variants thereof, for example SEQ IDs 1-63 and 122-127, were expressed in transgenic tobacco. DNA sequences that encode these polypeptides (optimized for tobacco or, optionally, codon optimized according to a target crop such as soybean) were prepared synthetically. Each sequence was designed to include a 5′ fusion with TMV omega 5′ leader sequence such that they are flanked at the 5′ end with XhoI and at the 3′ end with KpnI to facilitate direct cloning into a suitable binary vector for Agrobacterium-based plant transformation.
In one example, the TMV omega 5′ leader and a HPPD encoding gene of interest is excised using XhoI/KpnI and cloned into similarly digested binary vector pBIN 19 (Bevan, Nucl. Acids Res. (1984) behind a double enhanced 35S promoter ahead of a NOS 3′ transcription terminator and then transformed into E. coli DH5 alpha competent cells. DNA recovered from the E. coli is used to transform Agrobacterium tumefaciens LBA4404, and transformed bacteria are selected on media contain rifampicin and kanamycin. Tobacco tissue is subjected to Agrobacterium-mediated transformation using methods well described in the art or as described herein. For example, a master plate of Agrobacterium tumefaciens containing the HPPD expressing the binary vector is used to inoculate 10 ml LB (L broth) containing 100 mg/l Rifampicin plus 50 mg/l Kanamycin using a single bacterial colony. This is incubated overnight at 28° C. shaking at 200 rpm. This entire overnight culture is used to inoculate a 50 ml volume of LB containing the same antibiotics. Again this is cultured overnight at 28° C. shaking at 200 rpm. The Agrobacterium cells are pelleted by centrifuging at 3000 rpm for 15 minutes and then resuspended in MS (Murashige and Skoog) medium containing 30 g/l sucrose, pH 5.9 to an OD […]=0.6. This suspension is dispensed in 25 ml aliquots into petri dishes.
Once rooted, plantlets are transferred from agar and potted into 50% peat, 50% John Innes Soil No. 3 or, for example, MetroMix® 380 soil (Sun Gro Horticulture, Bellevue, WA) with slow-release fertilizer in 3 inch round or 4 inch square pots and left regularly watered to establish for 8-12d in the glass house. Glass house conditions are about 24-27° C. day; 18-21° C. night and approximately a 14h (or longer in UK summer) photoperiod. Humidity is adjusted to ˜65% and light levels used are up to 2000 umol/m^2 at bench level. Once new tissue emerged and plants reach the 2-4 leaf stage, some of the clones from each event are sprayed with an HPPD inhibitor of interest selected from the herbicides listed in reference to Example 1. […] For example Callisto® is mixed in water with 0.2-0.25% X-77 surfactant and sprayed from a boom on a suitable track sprayer moving at 2 mph in a DeVries spray chamber (Hollandale, MN) with the nozzle about 2 inches from the plant tops.
Plants are assessed for damage and scored at, for example, 7 and 14 days after treatment (DAT). About 20-30 TO events are produced for a number of HPPD variant genes.
Plants of events showing the least damage are grown to flowering, then bagged and allowed to self. […] Single copy events amongst the Ti plant lines are identified by their 3:1 segregation ratio (with respect to kanamycin and/or herbicide) and by quantitative RT-PCR. Seed from the thus selected Ti tobacco (var. Samsun) lines are sown in 3 inch diameter pots containing 50% peat and 50% John Innes Soil No. 3. After growth to the 3 leaf stage, plants are sprayed as described above in order to test for herbicide tolerance relative to like-treated non-transgenic tobacco plants, and also in comparison with like-treated Ti plants expressing the base HPPD SEQ IDs 122-125. HPPD expression levels were monitored by Western analysis. […]

For assay [2], the system named is HPPD variant AVESA V201 (SEQ ID NO: 8). Type of assay: biochemical, Avena sativa. The settings on record: SEQ ID NO: 8 compared to control SEQ ID NO: 122. How it is done:
25 ul of the overnight cultures were inoculated into fresh 96-deepwell block containing 1 ml Formedium Autoinduction Media (AIM). The AIM cultures were grown for 3h at 37° C. (900rpm) and then transferred to 20° C. overnight (900rpm) to allow protein expression. The overnight cultures were centrifuged and 500 ul of Cellytic B (Sigma Aldrich) was added to resuspend the cell pellets. The coupled HGO assay (Siehl et al, 2014) is used to generate IC50 values for the HPPD variants of interest.
E. coli BL21 (DE3) cells were transformed with a pET24a vector containing a C-terminally his-tagged Arabidopsis HGO gene, grown and induced overnight as described for the HPPD variants above. The cell pellet was resuspended in phosphate buffered saline at pH 7.4 containing 10% Glycerol, 1mm Tris[2-carboxyethyl] phosphine-HCl (TCEP) plus 30 mM Imidazole and lysed using lysozyme/benzonase. The extract was clarified by low speed centrifugation and purified in the same buffer down a 1 ml His Gravitrap column. The bound HGO was eluted in 0.25M imidazole and the fractions pooled and beaded into liquid nitrogen. All procedures apart from the centrifugation and beading steps were carried out under a nitrogen atmosphere.
The coupled HGO assay is carried out by adding 10 ul of HPPD extract to a 96-well plate and then adding 40 ul of reaction buffer (50 mM Bis Tris Propane, pH7.0, 25 mM sodium-L-ascorbate, 400μM mercaptoethanol, 50 μM Fe(II)SO4). The plates are left to incubate for 5 minutes on ice. […] 200 ul of HPP/HGO (197 μM hydroxyphenylpyruvic acid, 16 μl/ml Homogentisic Acid Oxidase in reaction buffer as described above) buffer is then added to the well and the reaction is regularly monitored (e.g. every 30 seconds-5 minutes) for absorbance at 330 nm for a given time period (e.g., for between 15-60 minutes). The data can then be used to calculate the IC50 value for each HPPD variant of interest.

The test system of assay [3] is transgenic tobacco plants expressing mutant HPPD SEQ ID 20. The assay is described as follows: spray test, herbicidal damage scoring. Type of assay: in vivo. The settings on record: several events expressing SEQ ID 20; 800 g/ha (Table 3.3). How it is done:
Avena sativa HPPD or orthologues and variants thereof, for example SEQ IDs 1-63 and 122-127, were expressed in transgenic tobacco. DNA sequences that encode these polypeptides (optimized for tobacco or, optionally, codon optimized according to a target crop such as soybean) were prepared synthetically. Each sequence was designed to include a 5′ fusion with TMV omega 5′ leader sequence such that they are flanked at the 5′ end with XhoI and at the 3′ end with KpnI to facilitate direct cloning into a suitable binary vector for Agrobacterium-based plant transformation. […]
Plants are assessed for damage and scored at, for example, 7 and 14 days after treatment (DAT). […]
Plants of events showing the least damage are grown to flowering, then bagged and allowed to self. […] Single copy events amongst the Ti plant lines are identified by their 3:1 segregation ratio (with respect to kanamycin and/or herbicide) and by quantitative RT-PCR. […] HPPD expression levels were monitored by Western analysis.
The tobacco lines expressing SEQ ID 122 were now compared to a population of tobacco which express SEQ ID 20. The plants were sprayed with 800g/ha Bicyclopyrone and scored for damage.

In the case of `COc1ccc(-n2nc(C)cc(C(=O)C3C(=O)CCCC3=O)c2=O)cc1OC` [Herbicide C, dioxopyritrione], the damage entry in assay [1] (200 g/ha, SEQ ID 14 plants compared to plants expressing SEQ IDs 122, 124 or 125) is “reduced damage”; in assay [1] (several lines expressing SEQ ID NO: 14, 100 g/ha (Table 3.1)), “less than 10%”. Besides, the stunting entry in assay [1] (FIG. 4, 300 ai/ha, SEQ ID NO: 14 plants compared to plants expressing the wild-type HPPD (SEQ ID NO: 1)) is given as “significantly reduced stunting”. The chlorosis result in assay [1] (FIG. 4, 300 ai/ha, some multi-copy events expressing SEQ ID NO: 14) is “Almost no chlorosis”. Moreover, in assay [1] (FIG. 5, 50 g/ha, SEQ ID NO: 14 plants compared to plants expressing SEQ ID NO: 122 or SEQ ID NO: 17), the “chlorosis (yellowing of leaf tissue)” value is “significantly reduced chlorosis”. The “tolerance in comparison to SEQ ID NO: 122” value in assay [1] (many lines expressing SEQ ID NO: 14, 100 g/ha (Table 3.1)) is “significantly improved tolerance”.

Turning to `Cn1nnnc1NC(=O)c1ccc(C(F)(F)F)nc1-n1cncn1` [Herbicide D, N-(1-methyltetrazol-5-yl)-2-(1,2,4-triazol-1-yl)-6-(trifluoromethyl)pyridine-3-carboxamide], in assay [2], the “increase of the IC50 value” is listed as around 80 fold.

Consider bicyclopyrone, for which the “tolerance in comparison to events expressing SEQ ID 122” value in assay [3] is “increased tolerance”.
